Target: T1, recombinant human NAE enzyme (Homo sapiens, UniProt Q8TBC4)
T1 construct: His (N); made in house; host or cells: Sf9 insect cells (baculovirus, Bac-to-Bac)
T1 sequence (Q8TBC4 1-463): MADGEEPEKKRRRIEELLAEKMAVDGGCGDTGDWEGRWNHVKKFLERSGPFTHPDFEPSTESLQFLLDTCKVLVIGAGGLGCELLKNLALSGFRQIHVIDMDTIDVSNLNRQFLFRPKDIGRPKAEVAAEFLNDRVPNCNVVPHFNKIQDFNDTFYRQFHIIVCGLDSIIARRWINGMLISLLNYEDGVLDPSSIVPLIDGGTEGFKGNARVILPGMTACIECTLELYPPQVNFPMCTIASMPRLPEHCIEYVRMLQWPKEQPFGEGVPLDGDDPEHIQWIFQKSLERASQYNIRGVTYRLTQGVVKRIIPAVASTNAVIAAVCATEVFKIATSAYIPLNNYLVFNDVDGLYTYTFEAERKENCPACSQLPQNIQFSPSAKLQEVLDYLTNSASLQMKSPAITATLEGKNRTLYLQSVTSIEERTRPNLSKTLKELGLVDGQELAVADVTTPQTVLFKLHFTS
T1 sequence (Q13564 1-534 partner): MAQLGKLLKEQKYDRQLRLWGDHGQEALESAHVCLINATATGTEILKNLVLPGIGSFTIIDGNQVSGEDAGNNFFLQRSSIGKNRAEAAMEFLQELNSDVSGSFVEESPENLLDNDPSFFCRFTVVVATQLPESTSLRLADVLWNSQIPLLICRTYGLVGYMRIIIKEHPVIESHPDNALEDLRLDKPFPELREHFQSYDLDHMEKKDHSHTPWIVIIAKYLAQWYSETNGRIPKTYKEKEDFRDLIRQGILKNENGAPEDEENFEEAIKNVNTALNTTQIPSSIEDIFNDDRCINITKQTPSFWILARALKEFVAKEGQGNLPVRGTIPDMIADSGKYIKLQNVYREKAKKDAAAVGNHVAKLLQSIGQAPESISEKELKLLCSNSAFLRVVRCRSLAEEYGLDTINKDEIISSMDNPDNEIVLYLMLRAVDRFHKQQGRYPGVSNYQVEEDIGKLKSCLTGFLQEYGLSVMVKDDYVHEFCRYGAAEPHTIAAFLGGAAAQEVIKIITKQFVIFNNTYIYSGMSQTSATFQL
Test: Nedd8-Activating Enzyme (NAE) HTRF Assay
Assay type: biochemical
Details: 20 μM ATP, bound given in nM
Protocol: Following manufacturer instructions, baculoviruses were generated with the Bac-to-Bac Expression System (Invitrogen) for the following proteins: untagged NAEα (APPBP1; NP_003896.1), N-terminally His-tagged NAEJ (UBE1C; NP_003959.3), untagged SAEα (SAE1; NP_005491.1), N-terminally His-tagged SAE3 (UBA2; NP_005490.1), N-terminally His-tagged murine UAE (UBE1X; NP_033483). NAEα/His-NAEβ and SAEα/His-SAEβ complexes were generated by co-infection of Sf9 cells, which were harvested after 48 hours. His-mUAE was generated by single infection of Sf9 cells and harvested after 72 hours. Expressed proteins were purified by affinity chromatography (Ni-NTA agarose, Qiagen) using standard buffers. Nedd8-Activating Enzyme (NAE) HTRF Assay. The NAE enzymatic reaction totaled 50 μL and contained 50 mM HEPES (pH 7.5), 0.05% BSA, 5 mM MgCl2, 20 μM ATP, 250 μM GSH, 0.01 μM Ubc12-GST, 0.075 μM Nedd8-Flag and 0.20 nM recombinant human NAE enzyme. The enzymatic reaction mixture, with and without compound inhibitor, was incubated at room temperature 24° C. for 105 minutes in a 384-well plate before termination with 25 μL of Stop/Detection buffer (0.1M HEPES pH 7.5, 0.05% Tween20, 20 mM EDTA, 410 mM KF, 0.53 nM Europium-Cryptate labeled monoclonal anti-FLAG M2 antibody (CisBio International) and 8.125 μg/mL PHYCOLINK goat anti-GST allophycocyanin (XL-APC) antibody (Prozyme)). After incubation for 1 hour at 24° C., quantification of the FRET was performed on the Analyst™ HT 96.384 (Molecular Devices).

`NS(=O)(=O)OC[C@H]1C[C@@H](Nc2cc(N[C@H]3CCc4c(F)cccc43)ncn2)[C@H](O)[C@@H]1O` [Compound I-1, {(1R,2R,3S,4R)-4-[(6-{[(1S)-4-fluoro-2,3-dihydro-1H-inden-1-yl]amino}-pyrimidin-4-yl)-amino]-2,3-dihydroxycyclopentyl}methyl sulfamate] and `NS(=O)(=O)OC[C@H]1C[C@@H](Nc2cc(N[C@H]3CCc4c(F)ccc(F)c43)ncn2)[C@H](O)[C@@H]1O` [Compound I-6, {(1R,2R,3S,4R)-4-[(6-{[(1S)-4,7-difluoro-2,3-dihydro-1H-inden-1-yl]amino}-pyrimidin-4-yl)amino]-2,3-dihydroxycyclopentyl}methyl sulfamate] cannot be ordered by IC50: no more than 500 nM for the first, no more than 500 nM for the second.

`CO[C@H]1Cc2ccccc2[C@H]1Nc1cc(N[C@@H]2C[C@H](COS(N)(=O)=O)[C@@H](O)[C@H]2O)ncn1` [Compound I-2, {(1R,2R,3S,4R)-2,3-dihydroxy-4-[(6-{[(1R,2S)-2-methoxy-2,3-dihydro-1H-inden-1-yl]-amino}pyrimidin-4-yl)amino]cyclopentyl}methyl sulfamate] and `NS(=O)(=O)OC[C@H]1C[C@@H](Nc2cc(N[C@@H]3CCc4ccccc43)ncn2)[C@H](O)[C@@H]1O` [Compound I-8, [(1R,2R,3S,4R)-4-({6-[(1R)-2,3-dihydro-1H-inden-1-ylamino]pyrimidin-4-yl}-amino)-2,3-dihydroxycyclopentyl]methyl sulfamate] cannot be ordered by IC50: no more than 500 nM for the first, no more than 500 nM for the second.

`NS(=O)(=O)OC[C@H]1C[C@@H](Nc2ncnc3[nH]cnc23)[C@H](O)[C@@H]1O` [Compound I-3, [(1R,2R,3S,4R)-2,3-dihydroxy-4-(9H-purin-6-ylamino)cyclopentyl]methyl sulfamate] and `NS(=O)(=O)OC[C@H]1C[C@@H](Nc2ncnc3[nH]c(-c4ccccc4)nc23)[C@H](O)[C@@H]1O` [Compound I-9, {(1R,2R,3S,4R)-2,3-dihydroxy-4-[(8-phenyl-9H-purin-6-yl)amino]cyclopentyl}-methyl sulfamate] cannot be ordered by IC50: no more than 500 nM for the first, no more than 500 nM for the second.

`NS(=O)(=O)OC[C@H]1C[C@@H](Nc2ccnc(NCC3CCCCC3)n2)[C@H](O)[C@@H]1O` [Compound I-4, [(1R,2R,3S,4R)-4-({2-[(cyclohexylmethyl)amino]pyrimidin-4-yl}amino)-2,3-dihydroxycyclopentyl]methyl sulfamate] and `NS(=O)(=O)OC[C@H]1C[C@@H](Nc2cc(NCC3CCCCC3)ncn2)[C@H](O)[C@@H]1O` [Compound I-14, [(1R,2R,3S,4R)-4-({6-[(cyclohexylmethyl)amino]pyrimidin-4-yl}amino)-2,3-dihydroxycyclopentyl]methyl sulfamate] cannot be ordered by IC50: greater than 500 nM for the first, no more than 500 nM for the second.

`NS(=O)(=O)OC[C@@H]1C[C@@H](Nc2cc(N[C@H]3CCc4ccccc43)ncn2)C[C@@H]1O` [Compound I-5, [(1S,2S,4R)-4-({6-[(1S)-2,3-dihydro-1H-inden-1-ylamino]pyrimidin-4-yl}amino)-2-hydroxycyclopentyl]methyl sulfamate] and `NS(=O)(=O)OC[C@@H]1C[C@@H](Nc2cc(N[C@H]3CCc4ccccc43)ncn2)[C@H](O)[C@@H]1O` [Compound I-11, [(1S,2R,3S,4R)-4-({6-[(1S)-2,3-dihydro-1H-inden-1-ylamino]pyrimidin-4-yl}-amino)-2,3-dihydroxycyclopentyl]methyl sulfamate] cannot be ordered by IC50: no more than 500 nM for the first, no more than 500 nM for the second.

`NS(=O)(=O)OC[C@H]1C[C@@H](Nc2ccnc(NCc3ccccc3)n2)[C@H](O)[C@@H]1O` [Compound I-7, ((1R,2R,3S,4R)-4-{[2-(benzylamino)pyrimidin-4-yl]amino}-2,3-dihydroxycyclopentyl)methyl sulfamate] and `CC1CC(Nc2nccc(N[C@@H]3C[C@H](COS(N)(=O)=O)[C@@H](O)[C@H]3O)n2)c2ccccc21` (stereo partly drawn) [Compound I-10, [(1R,2R,3S,4R)-2,3-dihydroxy-4-({2-[(3-methyl-2,3-dihydro-1H-inden-1-yl)-amino]pyrimidin-4-yl}amino)cyclopentyl]methyl sulfamate] cannot be ordered by IC50: greater than 500 nM for the first, no more than 500 nM for the second.

`NS(=O)(=O)OC[C@H]1C[C@@H](Nc2cc(N[C@H]3CCCc4ccccc43)ncn2)[C@H](O)[C@@H]1O` [Compound I-12, [(1R,2R,3S,4R)-2,3-dihydroxy-4-({6-[(1S)-1,2,3,4-tetrahydronaphthalen-1-ylamino]pyrimidin-4-yl}amino)cyclopentyl]methyl sulfamate] and `NS(=O)(=O)OC[C@H]1C[C@@H](Nc2cc(N[C@H]3CCc4cc(Cl)ccc43)ncn2)[C@H](O)[C@@H]1O` [Compound I-19, {(1R,2R,3S,4R)-4-[(6-{[(1S)-5-chloro-2,3-dihydro-1H-inden-1-yl]amino}-pyrimidin-4-yl)-amino]-2,3-dihydroxycyclopentyl}methyl sulfamate] cannot be ordered by IC50: no more than 500 nM for the first, no more than 500 nM for the second.

`CC1(C)C[C@H](Nc2nccc(N[C@@H]3C[C@H](COS(N)(=O)=O)[C@@H](O)[C@H]3O)n2)c2ccccc21` [Compound I-15, {(1R,2R,3S,4R)-4-[(2-{[(1S)-3,3-dimethyl-2,3-dihydro-1H-inden-1-yl]amino}-pyrimidin-4-yl)amino]-2,3-dihydroxycyclopentyl}methyl sulfamate] and `CC1(C)C[C@H](Nc2cc(N[C@@H]3C[C@H](COS(N)(=O)=O)[C@@H](O)[C@H]3O)ncn2)c2ccccc21` [Compound I-21, {(1R,2R,3S,4R)-4-[(6-{[(1S)-3,3-dimethyl-2,3-dihydro-1H-inden-1-yl]amino}-pyrimidin-4-yl)amino]-2,3-dihydroxycyclopentyl}methyl sulfamate] cannot be ordered by IC50: no more than 500 nM for the first, no more than 500 nM for the second.

`NS(=O)(=O)OC[C@H]1C[C@@H](NC(=O)c2cccnc2)[C@H](O)[C@@H]1O` [Compound I-16, {(1R,2R,3S,4R)-2,3-dihydroxy-4-[(pyridin-3-ylcarbonyl)amino]cyclopentyl}-methyl sulfamate] and `Cc1nc(N[C@H]2CCc3ccccc32)cc(N[C@@H]2C[C@H](COS(N)(=O)=O)[C@@H](O)[C@H]2O)n1` [Compound I-18, [(1R,2R,3S,4R)-4-({6-[(1S)-2,3-dihydro-1H-inden-1-ylamino]-2-methylpyrimidin-4-yl}-amino)-2,3-dihydroxycyclopentyl]methyl sulfamate] cannot be ordered by IC50: greater than 500 nM for the first, no more than 500 nM for the second.

For `NS(=O)(=O)OC[C@H]1C[C@@H](Nc2cc(N[C@H]3CCc4cc(F)c(F)cc43)ncn2)[C@H](O)[C@@H]1O` [Compound I-17, {(1R,2R,3S,4R)-4-[(6-{[(1S)-5,6-difluoro-2,3-dihydro-1H-inden-1-yl]amino}-pyrimidin-4-yl)amino]-2,3-dihydroxycyclopentyl}methyl sulfamate], the IC50 was no more than 500 nM.

Same assay, conditions: 20 μM ATP, bound given in μM

`NS(=O)(=O)OC[C@H]1C[C@@H](Nc2ccnc(NCC3CCCCC3)n2)[C@H](O)[C@@H]1O` [Compound I-4, [(1R,2R,3S,4R)-4-({2-[(cyclohexylmethyl)amino]pyrimidin-4-yl}amino)-2,3-dihydroxycyclopentyl]methyl sulfamate] and `NS(=O)(=O)OC[C@H]1C[C@@H](Nc2ccnc(NCc3ccccc3)n2)[C@H](O)[C@@H]1O` [Compound I-7, ((1R,2R,3S,4R)-4-{[2-(benzylamino)pyrimidin-4-yl]amino}-2,3-dihydroxycyclopentyl)methyl sulfamate] cannot be ordered by IC50: less than 10000 nM for the first, less than 10000 nM for the second.

`Cc1nc(N)cc(N[C@@H]2C[C@H](COS(N)(=O)=O)[C@@H](O)[C@H]2O)n1` [Compound I-13, {(1R,2R,3S,4R)-4-[(6-amino-2-methylpyrimidin-4-yl)amino]-2,3-dihydroxycyclopentyl}methyl sulfamate] and `CN(Cc1ccccc1)c1nccc(N[C@@H]2C[C@H](COS(N)(=O)=O)[C@@H](O)[C@H]2O)n1` [Compound I-20, [(1R,2R,3S,4R)-4-({2-[benzyl(methyl)amino]pyrimidin-4-yl}amino)-2,3-dihydroxycyclopentyl]methyl sulfamate] cannot be ordered by IC50: greater than 10000 nM for the first, greater than 10000 nM for the second.

Going from `NS(=O)(=O)OC[C@H]1C[C@@H](NC(=O)c2cccnc2)[C@H](O)[C@@H]1O` [Compound I-16, {(1R,2R,3S,4R)-2,3-dihydroxy-4-[(pyridin-3-ylcarbonyl)amino]cyclopentyl}-methyl sulfamate] to `CN(Cc1ccccc1)c1cc(N[C@@H]2C[C@H](COS(N)(=O)=O)[C@@H](O)[C@H]2O)ncn1` [Compound I-22, [(1R,2R,3S,4R)-4-({6-[benzyl(methyl)amino]pyrimidin-4-yl}amino)-2,3-dihydroxycyclopentyl]methyl sulfamate], the IC50 rises from less than 10000 nM to greater than 10000 nM. The first is the more potent here.
